Results published in a melting point compilation (Tetko et al.).

First: O=C(O)c1ccc(=O)n(-c2ccc(F)cc2)c1
Second: CC(=O)c1cnn(-c2ccc(F)cc2)c1C
The melting point of the first is higher: 299 to 301 °C for the first, 87 to 89 °C for the second.

First: O=C(Nc1cccnc1)c1cccc(Br)c1
Second: O=C(O)c1ccccc1OCc1cccnc1
The melting point of the first is lower: 133 to 135 °C for the first, 160 to 162 °C for the second.

First: CC(C)S(=O)(=O)NCC1CCCNC1 (configuration not stated)
Second: OC(CC1CCCN1)c1cccs1 (configuration not stated)
The melting point of the first is higher: 156 to 158 °C for the first, 63 to 65 °C for the second.

First: COc1ccc(Sc2ccc(N)cc2Cl)cc1
Second: COc1ccc(-c2csc3ncnc(Cl)c23)cc1
The melting point of the first is lower: 104 to 106 °C for the first, 163 to 167 °C for the second.

First: Nc1ccc(OCC2CCCCC2)cc1
Second: CC(C)(O)COc1ccc(N)cc1
The melting point of the first is lower: 53 to 55 °C for the first, 55 to 57 °C for the second.

First: O=C(O)Cn1c(COc2ccccc2)nc2ccccc21
Second: O=C(O)Cn1nnc(COc2ccccc2)n1
The melting point of the first is higher: 199 to 201 °C for the first, 111 to 113 °C for the second.

First: CC(C)(C)c1ccc(-c2nnc(N)[nH]2)cc1
Second: CS(=O)(=O)c1ccc(-c2csc(N)n2)cc1
The melting point of the first is lower: 213 to 215 °C for the first, 260 to 262 °C for the second.

First: Cc1oc2c(F)c(F)c(F)c(F)c2c1C(=O)O
Second: Cc1nn(C)c(C(F)F)c1C(=O)O
The melting point of the first is higher: 206 to 208 °C for the first, 165 to 167 °C for the second.

First: O=C(O)c1ccc(-c2cc(Cl)cc(Cl)c2)s1
Second: O=C(O)Cc1cc(Cl)ccc1Br
The melting point of the first is higher: 190 to 195 °C for the first, 101 to 103 °C for the second.

Compared with `CC1CCC(NS(=O)(=O)c2ccc(Cl)c([N+](=O)[O-])c2)CC1` (configuration not stated), `O=C1OCCN1c1ccc(S(=O)(=O)Cl)cc1` is higher in melting point: 101 to 103 °C for the first, 168 to 170 °C for the second.

First: CC(O)CNc1cc(Cl)ncn1 (configuration not stated)
Second: CNc1cc(Cl)nc(C)n1
The melting point of the first is lower: 101 to 103 °C for the first, 143 to 145 °C for the second.

First: N#Cc1cccc(NC(=O)OCC(F)(F)F)c1
Second: O=C(Nc1ccco1)OCC(F)(F)F
The melting point of the first is higher: 133 to 135 °C for the first, 78 to 80 °C for the second.

Compared with `COc1cccc(CO)c1OC(F)F`, `COc1ccc(CNC(=O)C(C)Cl)cc1OC` (configuration not stated) is higher in melting point: 77 to 79 °C for the first, 97 to 99 °C for the second.

`COc1ccc(C(=O)O)cc1S(=O)(=O)NCc1ccncc1` and `COc1ccc(C(=O)O)cc1-c1ccnn1C` fall in the same range of melting point: 225 to 227 °C for the first, 225 to 227 °C for the second.

Compared with `CCN(CC)Cc1ccc(O)c2ncccc12`, `Cc1cc(CO)c(C)n1-c1ccccc1` is higher in melting point: 60 to 62 °C for the first, 77 to 79 °C for the second.

Compared with `NC(=S)c1ncc(N)s1`, `Nc1ccc(C=CC(=O)O)cn1` is lower in melting point: 191 to 193 °C for the first, 189 to 191 °C for the second.

First: CCCn1c(CCC(=O)O)nc2cc(S(N)(=O)=O)ccc21
Second: O=C(O)CCc1nnc(-c2cc(F)ccc2Br)o1
The melting point of the first is higher: 259 to 261 °C for the first, 153 to 155 °C for the second.

First: CNC1(C(=O)O)CCCCC1
Second: COC(=O)c1c(N)sc2c1CCCCC2
The melting point of the first is higher: 309 to 311 °C for the first, 94 to 98 °C for the second.

Compared with `Cn1[nH]c(=O)c2c(=O)cc[nH]c21`, `O=C1Nc2ccc(S(=O)(=O)Cl)cc2C1=O` is lower in melting point: 327 to 329 °C for the first, 184 to 186 °C for the second.

First: O=C(CCl)N1CCCc2cc(S(=O)(=O)N3CCCC3)ccc21
Second: CCN(CC)S(=O)(=O)c1cc(NC(=O)CCl)ccc1C
The melting point of the first is higher: 146 to 148 °C for the first, 70 to 72 °C for the second.

First: O=C1C=CC(=O)N1CCCN1CCOCC1
Second: CCn1cc(N2C(=O)C=CC2=O)cn1
The melting point of the first is lower: 39 to 41 °C for the first, 92 to 94 °C for the second.

First: N#Cc1ccccc1Oc1ccc(C(=O)O)cc1Cl
Second: COc1cc(C(=O)O)cc(OC)c1OCc1ccccc1
The melting point of the first is higher: 174 to 176 °C for the first, 155 to 159 °C for the second.

First: CNc1ncnc2ccsc12
Second: Ic1n[nH]c2ccsc12
The melting point of the first is higher: 179 to 181 °C for the first, 174 to 176 °C for the second.

`CC(C)(C)OC(=O)Nc1cc(N)ccc1F` and `CC(C)(C)OC(=O)N1CCc2ccc(N)cc2C1` cannot be ordered by melting point: 92 to 94 °C for the first, 93 to 95 °C for the second.

First: CC(C)N1CCc2c(sc(N)c2C#N)C1
Second: Cc1nn(C(C)C)c(C)c1N
The melting point of the first is higher: 167 to 169 °C for the first, 58 to 60 °C for the second.

Compared with `FC(F)Oc1cccc(-c2ccc(Cl)nn2)c1`, `Nc1cccc(-c2cc[nH]n2)c1` is higher in melting point: 86 to 88 °C for the first, 137 to 139 °C for the second.

Compared with `Cc1cnc2ccccc2c1N`, `Nc1c(Cl)nc2ccccc2c1N` is higher in melting point: 139 to 141 °C for the first, 178 to 180 °C for the second.

`Cc1nnc(Cl)c(C#N)c1C` and `N#CCC(=O)c1ccc(Cl)cc1Cl` cannot be ordered by melting point: 61 to 63 °C for the first, 62 to 64 °C for the second.

Compared with `CC(=O)Nc1ccc(N)c(Cl)c1`, `Cc1ccc(C)c(NC(=S)NN)c1` is higher in melting point: 113 to 115 °C for the first, 162 to 164 °C for the second.

First: Nc1n[nH]c2c(Cl)cccc12
Second: Nc1cc(Cl)n[nH]1
The melting point of the first is higher: 189 to 191 °C for the first, 93 to 95 °C for the second.

Compared with `CC(C)CCn1cc(C(=O)O)nn1`, `COc1nc(C)ccc1C(=O)O` is lower in melting point: 187 to 189 °C for the first, 107 to 109 °C for the second.

Compared with `CCCOc1cn(-c2ccccc2)nc1C(=O)O`, `O=C(O)c1nn(-c2ccccc2C(F)(F)F)cc1O` is higher in melting point: 119 to 121 °C for the first, 141 to 145 °C for the second.

Compared with `COC(=O)c1cc(=O)c2ccccc2[nH]1`, `COC(=O)c1nc(-c2ccccc2)oc1N` is lower in melting point: 223 to 225 °C for the first, 193 to 195 °C for the second.

First: c1ccc(CNc2ccc(N3CCOCC3)cc2)nc1
Second: O=C(O)c1c2c(nc3ccccc13)CCN(Cc1ccccc1)C2
The melting point of the first is lower: 132 to 134 °C for the first, 224 to 226 °C for the second.

First: CS(=O)(=O)OCCn1cc(C#N)cn1
Second: CNS(=O)(=O)c1ccc(C#N)cc1
The melting point of the first is lower: 64 to 66 °C for the first, 128 to 130 °C for the second.

First: Nc1nc2nc(-c3ccccc3)cc(C(F)(F)F)c2s1
Second: Nc1nnnn1-c1ccccc1
The melting point of the first is higher: 234 to 236 °C for the first, 159 to 161 °C for the second.

Compared with `O=C(O)Cc1csc(-c2ccc3c(c2)OCO3)n1`, `O=C(O)c1cc(-c2cccs2)nc2onc(C3CC3)c12` is higher in melting point: 175 to 177 °C for the first, 236 to 238 °C for the second.

First: N#Cc1ccc(N2CCCC(Br)C2=O)cc1 (configuration not stated)
Second: O=C1NC(=O)N2CCCCC12 (configuration not stated)
The melting point of the first is higher: 124 to 126 °C for the first, 114 to 116 °C for the second.

First: CN(Cc1ccccc1)C(=O)NCCC(=O)O
Second: O=C(O)CCNC(=O)c1ccc2cn[nH]c2c1
The melting point of the first is lower: 120 to 122 °C for the first, 234 to 236 °C for the second.

First: Cc1cc(=O)[nH]c2c1cnn2C1CCCC1
Second: O=[N+]([O-])c1ccc2[nH]c3c(c2c1)CCCC3
The melting point of the first is higher: 259 to 261 °C for the first, 172 to 174 °C for the second.

First: O=c1onc(-c2ccccc2)n1CC1CO1 (configuration not stated)
Second: O=C1C(=O)N(Cc2ccccc2)c2ccccc21
The melting point of the first is lower: 81 to 83 °C for the first, 92 to 94 °C for the second.

First: OC(c1cccnc1)C(F)(F)F (configuration not stated)
Second: O=C(NC1CCc2ccccc21)c1ccnc(F)c1 (configuration not stated)
The melting point of the first is lower: 64 to 66 °C for the first, 121 to 123 °C for the second.

First: Fc1cc(Br)c(F)cc1S
Second: CCOC(=O)C(=O)c1cc(F)ccc1OC
The melting point of the first is lower: 47 to 49 °C for the first, 49 to 51 °C for the second.

First: CC(C)CNC(=O)C(C)Cl (configuration not stated)
Second: CSc1nc(NC(C)=O)n(C(C)=O)n1
The melting point of the first is lower: 37 to 39 °C for the first, 226 to 228 °C for the second.

Compared with `CCCCCCCCCC(=O)N[C@@H](CCC(N)=O)C(=O)O`, `COC(=O)c1cc(SC(=O)N(C)C)c(OC)cc1[N+](=O)[O-]` is higher in melting point: 129 to 131 °C for the first, 139 to 141 °C for the second.

Compared with `CC(C)COc1ccc(-c2nn(-c3ccccc3)cc2C=O)cc1`, `O=C(NCc1ccccc1)c1cc2ccccc2cc1O` is higher in melting point: 100 to 102 °C for the first, 180 to 182 °C for the second.

First: Nc1nc(-c2cc(Cl)sc2Cl)cs1
Second: COc1ccc(-c2csc3nc(C)[nH]c(=O)c23)cc1OC
The melting point of the first is lower: 144 to 146 °C for the first, 249 to 251 °C for the second.

First: COc1cc(OC)c2cc(CCCN)[nH]c2c1
Second: COCCOc1ccc(Cl)cc1C(=O)O
The melting point of the first is higher: 113 to 115 °C for the first, 68 to 70 °C for the second.

Compared with `O=S1(=O)CCC(I)CC1`, `Cc1cccc(C2CC2C(=O)O)c1` (configuration not stated) is lower in melting point: 124 to 126 °C for the first, 88 to 90 °C for the second.

First: Nc1ccc2c(c1)CCO2
Second: CCCc1ccccc1NC(N)=S
The melting point of the first is lower: 71 to 73 °C for the first, 116 to 118 °C for the second.

Compared with `CCc1ccc(-c2noc(S)n2)cc1`, `COCCNc1c(N)n(Cc2ccccc2)c(=O)[nH]c1=O` is higher in melting point: 159 to 161 °C for the first, 209 to 211 °C for the second.
